# Where a SMILES comes first, the peptide text is derived from it. [ ]: non-standard residue; d: D form. pS = N[C@@H](COP(=O)(O)O)C(=O)O
# Legend:
# Ess1 [1] = target: T1, Ess1 (Saccharomyces cerevisiae, UniProt P22696, R8S); experiment: Competition fluorescence anisotropy (unlabeled CTD peptides vs. FITC-1R-CTD for Ess1 binding); conditions: for Normalized Anisotropy: competition vs FITC-1R-CTD, mean
# T1 construct: Full-length Ess1 or Ess1 C120S plasmid was used to transform E. coli cells; 6xHis (cleaved yes); made in house; host or cells: E. coli Rosetta II (DE3) pLysS, isotope-labeled M9 minimal media
# T1 sequence (P22696 whole entry R8S): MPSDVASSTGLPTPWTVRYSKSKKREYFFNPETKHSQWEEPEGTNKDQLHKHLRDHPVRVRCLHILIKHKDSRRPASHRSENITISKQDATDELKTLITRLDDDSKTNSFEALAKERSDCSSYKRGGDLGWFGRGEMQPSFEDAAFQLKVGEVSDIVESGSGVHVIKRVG
# Experimental: A 1 repeat CTD peptide labeled with FITC at its N-terminus was used as a probe (FITC-1R, Table 2). […] Each point represents an average (±SD) of n = 2 or 3 from independent experiments.
# Fluorescence anisotropy measurements were performed in a Hidex Sense microplate reader using an excitation wavelength of 485 nm and an emission wavelength of 535 nm. Measurements were performed in 20 mM Tris pH 8.0, 3 mM TCEP buffer. […] Competition data was used to calculate IC50 values to compare the affinity differences between all five substrates (Eq. (1)).1 Competitionmodel:f1=min+max−min/1+x/IC50∧−Hillslope
# Ess1 [2] = target: T1, Ess1; experiment: NMR 1H-15N HSQC titration, Kd determination (single-site model); type: binding
# Experimental: Binding was monitored by recording ^1H–^15N HSQC spectra at different peptide to protein ratios. For each backbone amide, we assumed that the CSP was a weighted average between the free (Δδ = 0) and ligand-bound (Δδ = Δδbound) states, such that Δδ = Δδbound * [PL]/[Ptotal]. Here, [PL] and [Ptotal] represent the ligand-bound protein concentration, and Ptotal is the total protein concentration of Ess1. The CSP for each amide was calculated using the equation CSP=ΔδH^2+ΔδN/5^2 where ΔδH and ΔδN represent the change in chemical shift in the ^1H and ^15N dimensions, such that Δδ = 0 when calculating the CSP for the reference spectrum (in the absence of ligand). To obtain the dissociation binding constant, Kd, we used the single-site binding equation, PL=(([Ptotal]+[Ltotal]+Kd)−([Ptotal]+[Ltotal]+Kd)^2−4*[Ptotal]*[Ltotal])/2 , where [Ptotal] and [Ltotal] are total protein (Ess1) and ligand (CTD peptide) concentrations, respectively. Fitting was performed using an in-house Matlab script. […] Errors represent standard deviation of residue-specific Kd values.
# [3] = target: 1R CTD peptide CTD 1 repeat (Saccharomyces cerevisiae) (UniProt P04050); conditions: cited from earlier work
# Sequence of 1R CTD peptide CTD 1 repeat (Saccharomyces cerevisiae) (P04050 whole entry, looked up, tested part not stated): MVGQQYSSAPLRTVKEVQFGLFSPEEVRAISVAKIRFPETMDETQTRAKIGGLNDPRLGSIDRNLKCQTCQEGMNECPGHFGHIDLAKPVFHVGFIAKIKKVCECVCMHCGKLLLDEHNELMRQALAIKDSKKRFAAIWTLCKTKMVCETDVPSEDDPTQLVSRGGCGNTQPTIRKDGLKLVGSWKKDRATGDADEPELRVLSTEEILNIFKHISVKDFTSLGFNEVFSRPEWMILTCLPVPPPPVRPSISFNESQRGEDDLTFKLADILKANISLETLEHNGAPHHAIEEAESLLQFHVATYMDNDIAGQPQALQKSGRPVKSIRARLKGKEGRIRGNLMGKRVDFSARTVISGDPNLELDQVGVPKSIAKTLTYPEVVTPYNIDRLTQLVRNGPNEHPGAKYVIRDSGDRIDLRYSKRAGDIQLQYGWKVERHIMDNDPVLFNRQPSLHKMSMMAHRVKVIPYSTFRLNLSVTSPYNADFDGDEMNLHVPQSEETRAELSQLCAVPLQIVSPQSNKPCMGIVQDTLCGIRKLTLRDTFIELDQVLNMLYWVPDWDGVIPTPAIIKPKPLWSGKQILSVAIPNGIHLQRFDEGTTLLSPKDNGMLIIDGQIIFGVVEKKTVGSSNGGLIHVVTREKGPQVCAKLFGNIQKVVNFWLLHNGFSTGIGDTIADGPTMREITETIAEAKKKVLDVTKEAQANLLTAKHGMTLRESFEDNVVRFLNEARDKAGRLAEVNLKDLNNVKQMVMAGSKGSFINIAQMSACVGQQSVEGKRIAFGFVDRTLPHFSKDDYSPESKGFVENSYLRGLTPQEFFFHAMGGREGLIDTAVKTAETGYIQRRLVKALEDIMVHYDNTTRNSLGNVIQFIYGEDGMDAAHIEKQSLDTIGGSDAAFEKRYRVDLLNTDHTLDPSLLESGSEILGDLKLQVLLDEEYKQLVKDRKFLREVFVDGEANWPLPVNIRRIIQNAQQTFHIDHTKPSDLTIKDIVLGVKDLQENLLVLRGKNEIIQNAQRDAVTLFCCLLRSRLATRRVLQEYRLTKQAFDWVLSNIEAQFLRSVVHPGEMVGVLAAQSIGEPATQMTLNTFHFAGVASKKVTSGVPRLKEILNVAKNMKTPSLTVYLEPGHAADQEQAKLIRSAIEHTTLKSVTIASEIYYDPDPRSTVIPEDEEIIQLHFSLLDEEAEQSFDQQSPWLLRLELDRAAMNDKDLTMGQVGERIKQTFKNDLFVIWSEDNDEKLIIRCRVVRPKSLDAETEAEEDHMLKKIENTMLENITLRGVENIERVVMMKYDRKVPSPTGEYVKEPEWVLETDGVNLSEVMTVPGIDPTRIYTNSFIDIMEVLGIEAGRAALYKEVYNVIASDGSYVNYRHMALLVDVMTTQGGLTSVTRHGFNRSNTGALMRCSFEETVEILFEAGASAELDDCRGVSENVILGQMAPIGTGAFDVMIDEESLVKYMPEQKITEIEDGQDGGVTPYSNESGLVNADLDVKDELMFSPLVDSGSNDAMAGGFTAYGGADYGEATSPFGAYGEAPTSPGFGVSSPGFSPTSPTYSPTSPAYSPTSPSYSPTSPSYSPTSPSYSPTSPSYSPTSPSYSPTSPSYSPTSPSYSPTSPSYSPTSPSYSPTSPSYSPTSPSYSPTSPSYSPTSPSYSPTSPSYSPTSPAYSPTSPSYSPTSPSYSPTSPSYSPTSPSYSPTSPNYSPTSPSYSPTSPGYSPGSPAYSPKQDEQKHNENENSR
# [4] = residue-specific, 1 to 1 binding fit of NMR titration
# Sequence of Ess1 (from UniProt P22696) (P22696 whole entry): as the sequence (P22696 whole entry R8S) above, with S8R counted along it
compound,measurement,setting,value
CC(=O)N[C@@H](C)C(=O)N[C@@H](CO)C(=O)N[C@@H](Cc1ccc(O)cc1)C(=O)N[C@@H](CO)C(=O)N1CCC[C@H]1C(=O)N[C@H](C(=O)N[C@@H](COP(=O)(O)O)C(=O)N1CCC[C@H]1C(=O)N[C@@H](CO)C(=O)N[C@@H](Cc1ccc(O)cc1)C(=O)N[C@@H](CO)C(N)=O)[C@@H](C)O [1R] (Ac-ASYSPT[pS]PSYS-NH2),IC50,Ess1 [1],259 ± 33 µM
same,Normalized Anisotropy,Ess1 [1]; [1R CTD] 21 μM,0.9587
same,Normalized Anisotropy,Ess1 [1]; [1R CTD] 42 μM,0.9533
same,Normalized Anisotropy,Ess1 [1]; [1R CTD] 84 μM,0.9581
same,Normalized Anisotropy,Ess1 [1]; [1R CTD] 280 μM,0.8033
same,Normalized Anisotropy,Ess1 [1]; [1R CTD] 336 μM,0.7637
same,Normalized Anisotropy,Ess1 [1]; [1R CTD] 560 μM,0.6982
same,Kd,Ess1 [2],155 µM
same,"Kd, Ess1 residue 16",Ess1 [2]; [4],119.2 µM
same,"Kd, Ess1 residue 17",Ess1 [2]; [4],111.1 µM
same,"Kd, Ess1 residue 18",Ess1 [2]; [4],151.9 µM
same,"Kd, Ess1 residue 19",Ess1 [2]; [4],153.7 µM
same,"Kd, Ess1 residue 23",Ess1 [2]; [4],148.5 µM
same,"Kd, Ess1 residue 25",Ess1 [2]; [4],124.8 µM
same,"Kd, Ess1 residue 26",Ess1 [2]; [4],196.0 µM
same,"Kd, Ess1 residue 27",Ess1 [2]; [4],128.9 µM
same,"Kd, Ess1 residue 28",Ess1 [2]; [4],161.3 µM
same,"Kd, Ess1 residue 29",Ess1 [2]; [4],141.4 µM
same,"Kd, Ess1 residue 30",Ess1 [2]; [4],103.1 µM
same,"Kd, Ess1 residue 34",Ess1 [2]; [4],233.3 µM
same,"Kd, Ess1 residue 35",Ess1 [2]; [4],274.5 µM
same,"Kd, Ess1 residue 37",Ess1 [2]; [4],153.0 µM
same,"Kd, Ess1 residue 38",Ess1 [2]; [4],102.8 µM
same,"Kd, Ess1 residue 39",Ess1 [2]; [4],153.9 µM
same,"Kd, Ess1 residue 40",Ess1 [2]; [4],157.5 µM
same,"Kd, Ess1 residue 48",Ess1 [2]; [4],156.8 µM
same,"Kd, Ess1 residue 49",Ess1 [2]; [4],216.2 µM
same,"Kd, Ess1 residue 52",Ess1 [2]; [4],132.6 µM
same,"Kd, Ess1 residue 58",Ess1 [2]; [4],96.2 µM
same,"Kd, Ess1 residue 59",Ess1 [2]; [4],156.4 µM
same,"Kd, Ess1 residue 64",Ess1 [2]; [4],134.1 µM
same,"Kd, Ess1 residue 70",Ess1 [2]; [4],111.0 µM
same,"Kd, Ess1 residue 73",Ess1 [2]; [4],89.4 µM
same,"Kd, Ess1 residue 84",Ess1 [2]; [4],119.4 µM
same,"Kd, Ess1 residue 87",Ess1 [2]; [4],180.8 µM
same,"Kd, Ess1 residue 123",Ess1 [2]; [4],227.8 µM
same,"Kd, Ess1 residue 130",Ess1 [2]; [4],175.2 µM
same,"Kd, Ess1 residue 131",Ess1 [2]; [4],207.7 µM
same,"Kd, Ess1 residue 133",Ess1 [2]; [4],166.8 µM
same,"Kd, Ess1 residue 137",Ess1 [2]; [4],128.3 µM
same,"Kd, Ess1 residue 145",Ess1 [2]; [4],205.8 µM
same,"Kd, Ess1 residue 146",Ess1 [2]; [4],235.1 µM
same,"Kd, Ess1 residue 149",Ess1 [2]; [4],100.8 µM
same,"Kd, Ess1 residue 150",Ess1 [2]; [4],113.4 µM
same,"Kd, Ess1 residue 157",Ess1 [2]; [4],151.8 µM
same,"Kd, Ess1 residue 158",Ess1 [2]; [4],122.1 µM
same,"Kd, Ess1 residue 159",Ess1 [2]; [4],176.3 µM
same,"Kd, Ess1 residue 162",Ess1 [2]; [4],71.8 µM
same,"Kd, Ess1 residue 164",Ess1 [2]; [4],188.7 µM
CC(=O)N[C@@H](Cc1ccc(O)cc1)C(=O)N[C@@H](CO)C(=O)N1CCC[C@H]1C(=O)N[C@H](C(=O)N[C@@H](COP(=O)(O)O)C(=O)N1CCC[C@H]1C(=O)N[C@@H](CO)C(=O)N[C@@H](Cc1ccc(O)cc1)C(=O)N[C@@H](CO)C(=O)N1CCC[C@H]1C(=O)N[C@H](C(=O)N[C@@H](COP(=O)(O)O)C(=O)N1CCC[C@H]1C(=O)N[C@@H](CO)C(N)=O)[C@@H](C)O)[C@@H](C)O [2R],IC50,Ess1 [1],59 µM
same,Normalized Anisotropy,Ess1 [1]; [2R CTD] 29.25 μM,0.8399
same,Normalized Anisotropy,Ess1 [1]; [2R CTD] 58.5 μM,0.6905
same,Normalized Anisotropy,Ess1 [1]; [2R CTD] 234 μM,0.4873
Ess1 (from UniProt P22696),Kd,[3],60 µM

# — publication PMC7994582 (Communications Biology, 2021)
